Measured values: patent publication US8846908B2, “Tricyclic carbamate JAK inhibitors” (Rigel Pharmaceuticals, Inc., priority 2008, dated 2014)

Target: BaF3 V617F cells (Homo sapiens, UniProt O60674, V617F, cells depend on it)
Assay: Proliferation assay, BaF3 V617F cells (Cell Titer-Glo)
Assay type: cell-based, mouse
Settings: proliferation for 72 hours at 37° C., stated to show ability to inhibit JAK2 activity, read-out: IC50 (the source's name)
Experimental: BaF3 V617F cells are maintained and plated in RPMI with 10% FBS. Plating density for these cells is 1×10^5 cells/mL.
The cells were resuspended in a corresponding medium at a required cell density (see above). 100μ of cell suspension was added to each well of a flat bottom 96 well white plate. The compound was serially diluted in DMSO from 5 mM in 3-fold dilutions, and then diluted 1:250 in the RPMI 1640 medium containing 5% FBS and pen/strep. 100 μL of resulting 2× compound solution was added per well in duplicate and the cells were allowed to proliferate for 72 hours at 37° C.
Proliferation was measured using Cell Titer-Glo. The substrate was thawed and allowed to come to room temperature. After removal of top 100 μL of medium from each well, 100 μL of the premixed Cell Titer-Glo reagent was added to each well. The plates were mixed on an orbital shaker for three minutes to induce lysis and incubated at ambient temperature for an additional five minutes to allow the signal to equilibrate. The Luminescence was read on the Wallac Plate Reader.
The results of the ability of the compounds of the invention to inhibit JAK2 activity, when tested in the above assay, are shown in the following Table 2 wherein the level of activity (i.e., the IC50) for each compound is indicated in Table 2. The compound numbers in Table 2 refers to the compounds disclosed herein as being prepared by the methods disclosed herein.

BaF3 V617F cells, sequence (O60674 whole entry V617F): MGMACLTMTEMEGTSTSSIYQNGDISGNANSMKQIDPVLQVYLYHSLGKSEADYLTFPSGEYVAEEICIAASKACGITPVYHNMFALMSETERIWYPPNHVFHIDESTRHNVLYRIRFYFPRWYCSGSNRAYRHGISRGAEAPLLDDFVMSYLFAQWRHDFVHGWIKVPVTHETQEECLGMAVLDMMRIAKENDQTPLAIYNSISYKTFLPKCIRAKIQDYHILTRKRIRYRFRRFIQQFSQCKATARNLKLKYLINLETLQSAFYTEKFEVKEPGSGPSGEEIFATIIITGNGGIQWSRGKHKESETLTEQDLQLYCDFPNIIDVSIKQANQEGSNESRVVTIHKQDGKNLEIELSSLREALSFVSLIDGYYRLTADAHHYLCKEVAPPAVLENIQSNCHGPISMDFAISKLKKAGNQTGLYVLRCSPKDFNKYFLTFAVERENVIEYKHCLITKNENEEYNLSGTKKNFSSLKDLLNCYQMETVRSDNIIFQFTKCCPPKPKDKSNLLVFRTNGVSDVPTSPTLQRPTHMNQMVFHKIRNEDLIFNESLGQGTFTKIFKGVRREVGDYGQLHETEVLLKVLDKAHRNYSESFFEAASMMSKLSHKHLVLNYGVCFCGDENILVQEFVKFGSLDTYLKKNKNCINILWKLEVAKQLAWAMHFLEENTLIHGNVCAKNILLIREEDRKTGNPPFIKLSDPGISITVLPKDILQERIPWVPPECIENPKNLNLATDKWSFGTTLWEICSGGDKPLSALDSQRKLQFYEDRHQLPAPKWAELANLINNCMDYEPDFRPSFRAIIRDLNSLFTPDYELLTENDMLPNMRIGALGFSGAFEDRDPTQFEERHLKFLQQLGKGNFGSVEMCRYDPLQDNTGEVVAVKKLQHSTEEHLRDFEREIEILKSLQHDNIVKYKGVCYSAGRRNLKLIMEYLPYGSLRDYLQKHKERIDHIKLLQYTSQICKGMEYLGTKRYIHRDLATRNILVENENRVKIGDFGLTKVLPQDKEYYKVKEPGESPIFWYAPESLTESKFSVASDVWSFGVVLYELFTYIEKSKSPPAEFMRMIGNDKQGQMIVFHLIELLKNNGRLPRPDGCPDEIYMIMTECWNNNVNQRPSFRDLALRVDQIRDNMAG

Row | GI50 [nM] | SMILES
1 | 1000 to 5000 | O=C1N[C@@H]2c3cc(Nc4ncc(Cl)c(Nc5ccc(CCNS(=O)(=O)C6CC6)cc5)n4)ccc3C[C@@H]2O1 [Compound 1, 5-Chloro-N4-[4-[2-[N-(cyclopropylsulfonyl)amino]ethyl]phenyl]-N2-[(3aR,8aS)-2-oxo-3,3a,8,8a-tetrahydro-2H-indeno[1,2-d]oxazol-5-yl]-2,4-pyrimidinediamine]
2 | < 250 | O=C1N[C@@H]2c3cc(Nc4ncc(Cl)c(Nc5ccc(CNS(=O)(=O)C6CC6)cc5)n4)ccc3C[C@@H]2O1 [Compound 8, 5-Chloro-N4-[4-[[N-(cyclopropylsulfonyl)amino]methyl]phenyl]-N2-[(3aR,8aS)-2-oxo-3,3a,8,8a-tetrahydro-2H-indeno[1,2-d]oxazol-5-yl]-2,4-pyrimidinediamine]
3 | 500 to 1000 | CC(C)(C)NS(=O)(=O)c1cccc(Nc2nc(Nc3ccc4c(c3)[C@@H]3NC(=O)O[C@@H]3C4)ncc2Cl)c1 [Compound 14, 5-Chloro-N4-[3-[[(1,1-dimethylethyl)amino]sulfonyl]phenyl]-N2-[(3aS,8aR)-2-oxo-3,3a,8,8a-tetrahydro-2H-indeno[1,2-d]oxazol-5-yl]-2,4-pyrimidinediamine]
4 | 1000 to 5000 | Cc1cnc(Nc2ccc3c(c2)[C@@H]2NC(=O)O[C@@H]2C3)nc1Nc1ccc(CNS(=O)(=O)C2CC2)cc1 [Compound 15, N4-[4-[[N-(Cyclopropylsulfonyl)amino]methyl]phenyl]-5-methyl-N2-[(3aS,8aR)-2-oxo-3,3a,8,8a-tetrahydro-2H-indeno[1,2-d]oxazol-5-yl]-2,4-pyrimidinediamine]
5 | 1000 to 5000 | O=C1N[C@H]2c3cc(Nc4ncc(Cl)c(Nc5ccc(CNS(=O)(=O)C6CC6)cc5)n4)ccc3C[C@H]2O1 [Compound 16, 5-Chloro-N4-[4-[[N-(cyclopropylsulfonyl)amino]methyl]phenyl]-N2-[(3aS,8aR)-2-oxo-3,3a,8,8a-tetrahydro-2H-indeno[1,2-d]oxazol-5-yl]-2,4-pyrimidinediamine]
6 | 1000 to 5000 | Cc1cc(CNS(=O)(=O)C2CC2)ccc1Nc1nc(Nc2ccc3c(c2)[C@@H]2NC(=O)O[C@@H]2C3)ncc1Cl [Compound 17, 5-Chloro-N4-[4-[[N-(cyclopropylsulfonyl)amino]methyl]-2-methylphenyl]-N2-[(3aS,8aR)-2-oxo-3,3a,8,8a-tetrahydro-2H-indeno[1,2-d]oxazol-5-yl]-2,4-pyrimidinediamine]
7 | 1000 to 5000 | Cc1cc(CNS(=O)(=O)C2CC2)ccc1Nc1nc(Nc2ccc3c(c2)[C@@H]2NC(=O)OC2C3)ncc1C (some centres unmarked) [Compound 18]
8 | ≥ 5000 | O=C1N[C@H]2c3cc(Nc4ncc(Cl)c(Nc5cccc6c5CCC6)n4)ccc3CC2O1 (some centres unmarked) [Compound 19]
9 | 500 to 1000 | O=C1N[C@H]2c3cc(Nc4ncc(Cl)c(Nc5cccc6c5CCCC6)n4)ccc3C[C@H]2O1 [Compound 21, 5-Chloro-N2-[(3aS,8aR)-2-oxo-3,3a,8,8a-tetrahydro-2H-indeno[1,2-d]oxazol-5-yl]-N4-(5,6,7,8-tetrahydronaphthalen-1-yl)2,4-pyrimidinediamine]

The next lines start with the molecule.

Row | SMILES | GI50 [nM]
10 | Cc1cnc(Nc2ccc3c(c2)[C@H]2NC(=O)O[C@H]2C3)nc1Nc1ccc2c(c1)N(C)C(=O)C(C)(C)O2 [Compound 2, 5-Methyl-N2-[(3aR,8aS)-2-oxo-3,3a,8,8a-tetrahydro-2H-indeno[1,2-d]oxazol-5-yl]-N4-(2,2,4-trimethyl-3-oxo-benz[1,4]oxazin-6-yl)-2,4-pyrimidinediamine] | < 250
11 | Cc1cnc(Nc2ccc3c(c2)[C@H]2NC(=O)O[C@H]2C3)nc1Nc1ccc2c(c1)N(C)C(=O)CS2 [Compound 4, 5-Methyl-N4-(4-methyl-3-oxo-2H-benz[1,4]thiazin-6-yl)-N2-[(3aR,8aS)-2-oxo-3,3a,8,8a-tetrahydro-2H-indeno[1,2-d]oxazol-5-yl]-2,4-pyrimidinediamine] | 500 to 1000
12 | Cc1cnc(Nc2ccc3c(c2)[C@H]2NC(=O)OC2C3)nc1Nc1ccc2c(n1)N(C)C(=O)C(C)(C)O2 (stereo partly drawn) [Compound 5, 5-Methyl-N2-[(3aR,8aS)-2-oxo-3,3a,8,8a-tetrahydro-2H-indeno[1,2-d]oxazol-5-yl]-N4-(2,2,4-trimethyl-3-oxo-5-pyrido[1,4]oxazin-6-yl)-2,4-pyrimidinediamine] | < 250
13 | CCCN1C(=O)COc2ccc(Nc3nc(Nc4ccc5c(c4)[C@H]4NC(=O)O[C@H]4C5)ncc3C)cc21 [Compound 6, 5-Methyl-N4-(4-propyl-3-oxo-2H-benz[1,4]oxazin-6-yl)-N2-[(3aR,8aS)-2-oxo-3,3a,8,8a-tetrahydro-2H-indeno[1,2-d]oxazol-5-yl]-2,4-pyrimidinediamine] | 250 to 500
14 | Cc1cnc(Nc2ccc3c(c2)[C@H]2NC(=O)O[C@H]2C3)nc1Nc1ccc2c(c1)N(C)C(=O)C(C)(C)S2 [Compound 7, 5-Methyl-N2-[(3aR,8aS)-2-oxo-3,3a,8,8a-tetrahydro-2H-indeno[1,2-d]oxazol-5-yl]-N4-(2,2,4-trimethyl-3-oxo-benz[1,4]thiazin-6-yl)-2,4-pyrimidinediamine] | < 250
15 | Cc1cnc(Nc2ccc3c(c2)[C@@H]2NC(=O)O[C@@H]2C3)nc1Nc1ccc2c(c1)N(C)C(=O)C(C)(C)O2 [Compound 9, 5-Methyl-N2-[(3aS,8aR)-2-oxo-3,3a,8,8a-tetrahydro-2H-indeno[1,2-d]oxazol-5-yl]-N4-(2,2,4-trimethyl-3-oxo-benz[1,4]oxazin-6-yl)-2,4-pyrimidinediamine] | 250 to 500
16 | CN1C(=O)C(C)(C)Oc2ccc(Nc3nc(Nc4ccc5c(c4)[C@@H]4NC(=O)O[C@@H]4C5)ncc3Cl)cc21 [Compound 10, 5-Chloro-N2-[(3aS,8aR)-2-oxo-3,3a,8,8a-tetrahydro-2H-indeno[1,2-d]oxazol-5-yl]-N4-(2,2,4-trimethyl-3-oxo-benz[1,4]oxazin-6-yl)-2,4-pyrimidinediamine] | < 250
17 | CCN1C(=O)C(C)(C)Oc2ccc(Nc3nc(Nc4ccc5c(c4)[C@@H]4NC(=O)O[C@@H]4C5)ncc3C)cc21 [Compound 11, N4-(2,2-Dimethyl-4-ethyl-3-oxo-benz[1,4]oxazin-6-yl)-5-methyl-N2-[(3aS,8aR)-2-oxo-3,3a,8,8a-tetrahydro-2H-indeno[1,2-d]oxazol-5-yl]-2,4-pyrimidinediamine] | 250 to 500
18 | CCN1C(=O)C(C)(C)Oc2ccc(Nc3nc(Nc4ccc5c(c4)[C@@H]4NC(=O)O[C@@H]4C5)ncc3Cl)cc21 [Compound 12, 5-Chloro-N4-(2,2-dimethyl-4-ethyl-3-oxo-benz[1,4]oxazin-6-yl)-N2-[(3aS,8aR)-2-oxo-3,3a,8,8a-tetrahydro-2H-indeno[1,2-d]oxazol-5-yl]-2,4-pyrimidinediamine] | 250 to 500
19 | Cc1cnc(Nc2ccc3c(c2)[C@@H]2NC(=O)O[C@@H]2C3)nc1Nc1ccc2c(c1)NC(=O)C(C)(C)O2 [Compound 13, N4-(2,2-Dimethyl-3-oxo-4H-benz[1,4]oxazin-6-yl)-5-methyl-N2-[(3aS,8aR)-2-oxo-3,3a,8,8a-tetrahydro-2H-indeno[1,2-d]oxazol-5-yl]-2,4-pyrimidinediamine] | 1000 to 5000
20 | Cc1cnc(Nc2ccc3c(c2)[C@@H]2NC(=O)O[C@@H]2C3)nc1Nc1cccc2c1CCC2 [Compound 20, N4-(Indan-4-yl]-5-methyl-N2-[(3aS,8aR)-2-oxo-3,3a,8,8a-tetrahydro-2H-indeno[1,2-d]oxazol-5-yl]-2,4-pyrimidinediamine] | < 250
21 | Cc1cnc(Nc2ccc3c(c2)[C@@H]2NC(=O)O[C@@H]2C3)nc1Nc1cccc2c1CCCC2 [Compound 22, 5-Methyl-N2-[(3aS,8aR)-2-oxo-3,3a,8,8a-tetrahydro-2H-indeno[1,2-d]oxazol-5-yl]-N4-(5,6,7,8-tetrahydronaphthalen-1-yl)-2,4-pyrimidinediamine] | 250 to 500
22 | O=C1N[C@H]2c3cc(Nc4ncc(Cl)c(Nc5cccc6c5OCCO6)n4)ccc3C[C@H]2O1 [Compound 23, N4-(1,4-Benzodioxan-5-yl)-5-chloro-N2-[(3aS,8aR)-2-oxo-3,3a,8,8a-tetrahydro-2H-indeno[1,2-d]oxazol-5-yl]-2,4-pyrimidinediamine] | 1000 to 5000
23 | Cc1cnc(Nc2ccc3c(c2)[C@@H]2NC(=O)O[C@@H]2C3)nc1Nc1cccc2c1OCCO2 [Compound 24, N4-(1,4-Benzodioxan-5-yl)-5-methyl-N2-[(3aS,8aR)-2-oxo-3,3a,8,8a-tetrahydro-2H-indeno[1,2-d]oxazol-5-yl]-2,4-pyrimidinediamine] | < 250
24 | O=C1N[C@H]2c3cc(Nc4ncc(Cl)c(Nc5cccc6c5OC(F)(F)O6)n4)ccc3C[C@H]2O1 [Compound 25, 5-Chloro-N4-(2,2-difluoro-1,3-benzodioxol-4-yl)-N2-[(3aS,8aR)-2-oxo-3,3a,8,8a-tetrahydro-2H-indeno[1,2-d]oxazol-5-yl]-2,4-pyrimidinediamine] | ≥ 5000
25 | O=C1N[C@@H]2c3cc(Nc4ncc(F)c(Nc5ccc(OCc6ccccn6)cc5)n4)ccc3C[C@@H]2O1 [Compound 26, 5-Fluoro-N2-[(3aR,8aS)-2-oxo-3,3a,8,8a-tetrahydro-2H-indeno[1,2-d]oxazol-5-yl]-N4-[4-(pyridin-2-ylmethoxy)phenyl]-2,4-pyrimidinediamine] | 1000 to 5000
26 | Cc1cnc(Nc2ccc3c(c2)[C@H]2NC(=O)O[C@H]2C3)nc1Nc1ccc(OCc2ccccn2)cc1 [Compound 27, 5-Methyl-N2-[(3aR,8aS)-2-oxo-3,3a,8,8a-tetrahydro-2H-indeno[1,2-d]oxazol-5-yl]-N4-[4-(pyridin-2-ylmethoxy)phenyl]-2,4-pyrimidinediamine] | 250 to 500
